Experimental findings from patent US11542311B2, “Fusion protein, preparation method therefor and application thereof in preparing ophthalmic disease treatment, anti-inflammation and anti-tumor medicament” (JIANGSU RONGTAI BIOTECH CO., LTD., priority 2017, dated 2023) are described below.

Structures are written as SMILES.

For assay [1], the system named is xylene-induced ear swelling in mice. Briefly: Xylene-induced ear swelling in mice. Type of assay: in vivo, Kunming mice. Conditions: 200 mg/kg. The procedure: 80 Kunming mice were divided into 8 groups with 10 mice for each group and numbered. A physiological saline group was used as a blank control group, an aspirin group (200 mg/kg) was used as a positive control group, and fusion proteins I and II at high, medium and low doses (128, 32, 8 mg/kg) was used as the experimental groups. Mice were administered once by injection every 5 days. The blank control group was given an equal volume of physiological saline. On the fifth day after the administration, 0.05 mL of xylene was applied to both sides of the right ears of the mice to induce inflammation, and the left ears were not applied and were normal ears. After 2 h, the mice were sacrificed by dislocation, and the ears were cut along the auricle. Ear pieces were taken with a puncher and weighed, and the swelling degree and swelling rate were calculated. Swelling degree=right ear piece weight-left ear piece weight, swelling rate=(swelling degree/left ear piece weight)×100%.

The subject of assay [2] is adjuvant arthritis in rat. Briefly: Chronic inflammation of adjuvant arthritis in rat. Conditions: 1 mg/kg once every 5 days for 15 days. Type of assay: in vivo, SD rats. The procedure: 80 SPF SD rats were randomly divided into 8 groups. Rats in each group were lightly anesthetized with ether. Then, 0.1 mL of complete Freund's adjuvant containing inactivated Mycobacterium tuberculosis was injected subcutaneously into the left hind foot of the rats. Primary arthritis occurred in the left hind foot of the rat, and at about 13 days post-modeling, secondary arthritis occurred in the right hind foot. A blank control group was injected with an equal volume of physiological saline. The drug was administered 13 days after modeling.
Using a foot volume measuring method, a marker was made with a fat-soluble marker at the left and right posterior ankle joints of each rat, and the left and right hind feet of the animal were respectively immersed in the volume measuring device. The immersion depth was bounded by the marker, and the reading value at the scale pipette of the device was the initial volume of the animal's left and right hind feet.
The day of modeling was considered as the 0th day and recorded as d0. The volume of the left hind foot (modeling foot) was measured from the first day dl after modeling every 2 days. When the swelling occurred (i.e., secondary arthritis occurred) at the contralateral non-inflammatory foot (right hind foot), the administration was started. The volume of the left and right hind feet was measured once every 2 days, and the degree of primary and secondary toe swelling was determined, which was calculated as follows: Primary toe swelling (mL)=left hind foot volume on the day of measurement−initial volume of left hind foot Secondary toe swelling (mL)=right hind foot volume on the day of measurement−initial volume of right hind foot
Systemic score: the systemic score was taken every 2 days after the onset of secondary inflammation.
Hind foot: no swelling=0 score, one hind foot swelling=1 score, two hind feet swelling=2 scores;
Forefoot: no swelling=0 score, one forefoot swelling=1 score, two forefeet swelling=2 scores;
Ears: no redness and nodules=0 score, redness or nodules in one ear=1 score, redness and nodules in both ears=2 scores;
Nose: no swelling=0 score, obvious swelling=1 score;
Tail: no nodules=0 score, nodules=1 score; full score was 8 scores.
Arthritis index score: the arthritis index score was performed every 2 days after the onset of secondary inflammation.
The initial body weight of each group of rats was weighed before modeling. The body weight was measured every 2 days from dl after modeling, from which the initial body weight was subtracted to obtain the weight gain of each group of rats.

Assay [3] deals with Human umbilical vein endothelial cells (HUVECs). The experiment in a line: Three-dimensional transwell assay, migration of HUVEC. Type of assay: cell-based. Conditions: 8.0 · 10^−6 μg/mL, 24 h. The procedure: (1) 10 mg/mL Matrigel (a basement membrane matrix secreted by Engelbreth-Holm-Swarm (EHS) mouse sarcoma cells) diluted with a DMEM medium (Dulbecco's Modified Eagle Medium) at a ratio of 1:4, coated on a transwell chamber membrane, and air-dried at room temperature;
(2) HUVEC cells cultured to logarithmic phase were digested with 0.2% EDTA, collected, washed twice with PBS, followed by resuspended in an endothelial cell culture liquid containing 0.1% BSA, and counted under a microscope, and the cell concentration was adjusted to 1×10^5 cells/mL;
(3) Test solutions for each group were formulated and diluted to 100 μL with a cell culture liquid containing 0.1% BSA;
(4) The cells were inoculated into a transwell chamber, 100 μL per well, and test solutions for each group were added to the chamber. To a 24-well plate, 0.6 mL of endothelial cell culture liquid containing 5% fetal bovine serum and 1×ECGS was added to stimulate cell migration, and incubated at 5% CO2 at 37° C. for 24 h;
(5) The culture liquid in the well was discarded. […] The migration inhibition (MI) was calculated according to the formula: […]
The test was repeated 3 times independently. The results obtained from the test were calculated as mean±SD, and statistical t-test was performed. […]

For assay [4], the system named is lung cancer cell A549. Briefly: MTT assay, proliferation of lung cancer cell A549. Type of assay: cell-based. Conditions: 5 μg/mL, 48 h. The procedure: (§1) The MTT assay was used to detect the inhibitory effect of the integrin blocker fusion protein obtained in Example 1 on the proliferation of various tumor cells, including melanoma cell B16F10, gastric cancer cell MGC-803, lung cancer cell A549, liver cancer cell Hep-G2, breast cancer cell MDA-MB-231, colon cancer cell HCT-116, human glioma U87, and cervical cancer cell Hela.
(§2) The tumor cells were cultured in a 5% CO2 incubator at 37° C. to a density of 90% or more, and collected by trypsinization. The cells were resuspended in the culture liquid and counted under a microscope. The cell concentration was adjusted to 3.0×10^4 cells/mL. The cell suspension was inoculated into a 96-well plate, 100 μL per well, and cultured overnight in a 5% CO2 incubator at 37° C. The fusion proteins I, II, and the positive drug Taxol were diluted with the culture liquid to respective predetermined concentrations. After the cells were fully adhered, each dilution was added to a 96-well plate, 100 μL per well, respectively. […] The absorbance was measured at 570 nm with a microplate reader with a reference wavelength of 630 nm, and the proliferation inhibition (PI) was calculated. […]
(§3) The test was repeated 5 times independently. The results obtained from the test were calculated as mean±SD, and statistical t-test was performed. […]

The subject of assay [5] is colon cancer cell HCT-116. The experiment in a line: MTT assay, proliferation of colon cancer cell HCT-116. Type of assay: cell-based. Conditions: 5 μg/mL, 48 h. The procedure:
as §1, §2, §3
In general terms: Formazan colour is commonly taken as a measure of viable cells.

The subject of assay [6] is gastric cancer cell MGC-803. The experiment in a line: MTT assay, proliferation of gastric cancer cell MGC-803. Conditions: 5 μg/mL, 48 h. In kind it is cell-based. The procedure: as §1, §2, §3
Assay [7] concerns liver cancer cell Hep-G2. Briefly: MTT assay, proliferation of liver cancer cell Hep-G2. In kind it is cell-based. Conditions: 5 μg/mL, 48 h. The procedure:
as §1, §2, §3

Assay [8] relates to melanoma cell B16F10. The experiment in a line: MTT assay, proliferation of melanoma cell B16F10. In kind it is cell-based. Conditions: 5 μg/mL, 48 h. The procedure: as §1, §2, §3
The subject of assay [9] is human glioma U87. Briefly: MTT assay, proliferation of human glioma U87. Type of assay: cell-based. Conditions: 5 μg/mL, 48 h. The procedure:
as §1, §2, §3

Assay [10] deals with breast cancer cell MDA-MB-231. The experiment in a line: MTT assay, proliferation of breast cancer cell MDA-MB-231. Type of assay: cell-based. Conditions: 5 μg/mL, 48 h. The procedure:
as §1, §2, §3

The test system of assay [11] is cervical cancer cell Hela. The experiment in a line: MTT assay, proliferation of cervical cancer cell Hela. In kind it is cell-based. Conditions: 5 μg/mL, 48 h. The procedure:
as §1, §2, §3

As for `CC(=O)Oc1ccccc1C(=O)O` [Aspirin, aspirin, reference compound], the “PI (%)” value in [1] (ear swelling, mice) worked out at 53.15%. Further, in [1] (mouse ear, 2 h after xylene), the “Swelling degree” value came to 3.12 ± 0.61 mg.
On to `CN(Cc1cnc2nc(N)nc(N)c2n1)c1ccc(C(=O)N[C@@H](CCC(=O)O)C(=O)O)cc1` [Methotrexate, methotrexate, reference compound], for which, in assay [2], the “Clinical score Arthritis index” value was determined as 2.96 ± 0.57, the “Clinical score Whole body” value is 1.34 ± 0.19, the “Foot swelling degree (mL) Left” value amounted to 1.22 ± 0.21 mL and the “Foot swelling degree (mL) Right” value was found to be 1.25 ± 0.13 mL. Further, the “Weight gain” value in assay [2] is listed as 47.35 ± 17.40 g.
On to `CCN(CC)CCNC(=O)c1c(C)[nH]c(/C=C2\C(=O)Nc3ccc(F)cc32)c1C` [Sunitinib, reference compound], for which, in assay [3], the “MI (%)” value amounted to 82.31% and the Migration cell number came to 441.0 ± 150.58.
With `CC(=O)O[C@H]1C(=O)[C@@]2(C)[C@H]([C@H](OC(=O)c3ccccc3)[C@]3(O)C[C@H](OC(=O)[C@H](O)[C@@H](NC(=O)c4ccccc4)c4ccccc4)C(C)=C1C3(C)C)[C@]1(OC(C)=O)CO[C@@H]1C[C@@H]2O` [Taxol, reference compound], the “A570 nm/A630 nm” value came to 0.3226 ± 0.0309 in assay [4]; 0.2098 ± 0.0164 in assay [5]; 0.4146 ± 0.0186 in [6]; 0.4257 ± 0.0099 in [7]; 0.6011 ± 0.0144 in assay [8]; 0.1825 ± 0.0163 in assay [9]. Also, the “A570 nm/A630 nm” value in assay [10] is 0.4071 ± 0.0301; in assay [11], 0.2078 ± 0.0162. Besides, the “PI (%)” value turned out to be 52.17% in assay [4]; 69.16% in assay [5]; 56.60% in [6]; 58.55% in [7]; 52.13% in assay [8]; 76.38% in assay [9]. Moreover, the “PI (%)” value is listed as 52.83% in assay [10] and 83.75% in [11].
